According to patent US8916557B2, “Substituted 4-Aryl-N-phenyl-1,3,5-triazin-2-amines” (Bayer Intellectual Property GmbH, priority 2011, dated 2014):

What was measured:
[1] = biological target: T1, CDK9/CycT1 (Homo sapiens, UniProt P50750); assay: CDK9/CycT1 kinase assay (TR-FRET); type: biochemical; conditions: Method 1, 10 μM ATP
T1 construct: Recombinant full-length His-tagged human CDK9 and CycT1; His; purchased Invitrogen PV4131; host or cells: insect cells
Method in brief: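 Full-length His-tagged human CDK9/CycT1 (insect-cell expressed), 15 min compound pre-incubation, then 25 min at 22 °C with 10 µM ATP (final) and 1 µM biotinylated peptide (final) in Tris pH 8.0/MgCl2 buffer. Phospho-substrate detected by TR-FRET (anti-RB pSer807/pSer811, Eu anti-mouse IgG, streptavidin-XL665); 665/622 nm emission ratio as read-out.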

[2] = system: DU 145, hormone-independent human prostate carcinoma cells; assay: Proliferation assay (crystal violet), DU 145; type: cell-based; conditions: DU145 cells, read-out: Inhibition of DU145 cell proliferation
[3] = biological target: T2, CDK2/CycE (Homo sapiens, UniProt P24941); assay: CDK2/CycE kinase assay (TR-FRET); type: biochemical; conditions: Method 2, 10 μM ATP
T2 construct: GST; purchased ProQinase GmbH (Freiburg, Germany); host or cells: insect cells (Sf9)
Method in brief: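 GST-CDK2/GST-CycE (Sf9-expressed, ~130 ng/ml) pre-incubated with compound 15 min, then reacted 25 min at 22 °C with 10 μM ATP and 0.75 μM biotinylated peptide in Tris pH 8.0. Phospho-substrate detected by TR-FRET (anti-pRb pSer807/811, Eu/XL665), 665/620 nm ratio.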

T1 sequence (P50750 whole entry): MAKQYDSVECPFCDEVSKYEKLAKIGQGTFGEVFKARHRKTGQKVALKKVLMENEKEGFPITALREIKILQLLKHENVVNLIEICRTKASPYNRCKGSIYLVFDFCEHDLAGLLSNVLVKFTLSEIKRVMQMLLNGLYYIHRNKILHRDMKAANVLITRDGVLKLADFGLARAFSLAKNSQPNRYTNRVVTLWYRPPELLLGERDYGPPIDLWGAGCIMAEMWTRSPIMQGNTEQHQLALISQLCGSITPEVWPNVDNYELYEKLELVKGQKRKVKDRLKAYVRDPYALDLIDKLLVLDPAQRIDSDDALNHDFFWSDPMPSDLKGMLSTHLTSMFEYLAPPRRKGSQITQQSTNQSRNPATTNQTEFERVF
T1 sequence (O60563 whole entry partner): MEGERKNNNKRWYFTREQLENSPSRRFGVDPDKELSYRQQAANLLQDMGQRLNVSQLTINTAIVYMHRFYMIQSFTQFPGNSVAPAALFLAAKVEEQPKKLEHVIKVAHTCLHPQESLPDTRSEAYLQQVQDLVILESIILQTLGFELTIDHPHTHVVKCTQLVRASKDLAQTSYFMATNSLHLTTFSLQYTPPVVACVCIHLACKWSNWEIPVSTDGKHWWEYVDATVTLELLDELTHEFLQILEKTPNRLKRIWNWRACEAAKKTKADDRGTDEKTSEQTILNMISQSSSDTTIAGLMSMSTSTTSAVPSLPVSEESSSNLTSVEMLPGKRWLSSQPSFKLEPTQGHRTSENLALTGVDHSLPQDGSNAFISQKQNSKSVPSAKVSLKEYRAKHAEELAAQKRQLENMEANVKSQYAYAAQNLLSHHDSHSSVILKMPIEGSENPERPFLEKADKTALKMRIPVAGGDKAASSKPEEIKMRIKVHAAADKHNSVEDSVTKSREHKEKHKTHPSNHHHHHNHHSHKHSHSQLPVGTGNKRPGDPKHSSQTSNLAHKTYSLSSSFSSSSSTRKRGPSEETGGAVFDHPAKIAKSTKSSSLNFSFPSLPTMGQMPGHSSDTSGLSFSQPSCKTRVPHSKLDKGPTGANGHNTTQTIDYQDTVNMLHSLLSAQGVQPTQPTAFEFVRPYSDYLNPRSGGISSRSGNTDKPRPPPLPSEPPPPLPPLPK

Compound	IC50 [1]	IC50 [2]	IC50 [3]
COc1cc(F)c(F)cc1-c1ncnc(Nc2cccc(CS(C)(=O)=O)c2)n1 [Example 1, 4-(4,5-Difluoro-2-methoxyphenyl)-N-{3-[(methylsulfonyl)methyl]phenyl}-1,3,5-triazin-2-amine]	14 nM	830 nM	640 nM
COc1cc(F)ccc1-c1ncnc(Nc2cccc(CS(C)(=O)=O)c2)n1 [Example 3, 4-(4-Fluoro-2-methoxyphenyl)-N-{3-[(methylsulfonyl)methyl]phenyl}-1,3,5-triazin-2-amine]	24 nM	1200 nM	1600 nM
COc1cc(F)ccc1-c1ncnc(Nc2cccc(CS(=O)(=O)C3CCCCC3)c2)n1 [Example 9, N-{3-[(Cyclohexylsulfonyl)methyl]phenyl}-4-(4-fluoro-2-methoxyphenyl)-1,3,5-triazin-2-amine]	10 nM	840 nM	560 nM
CS(=O)(=O)Cc1cccc(Nc2ncnc(-c3cccc4c3OCCC4)n2)c1 [Example 12, 4-(3,4-Dihydro-2H-chromen-8-yl)-N-{3-[(methylsulfonyl)methyl]phenyl}-1,3,5-triazin-2-amine]	7 nM	320 nM	510 nM
CS(=O)(=O)Cc1cccc(Nc2ncnc(-c3cccc4c3OCCO4)n2)c1 [Example 18, 4-(2,3-Dihydro-1,4-benzodioxin-5-yl)-N-{3-[(methylsulfonyl)methyl]phenyl}-1,3,5-triazin-2-amine]	8 nM	530 nM	840 nM
CS(=O)(=O)Cc1cccc(Nc2ncnc(-c3ccc(Cl)cc3OC3CCCC3)n2)c1 [Example 29, 4-[4-Chloro-2-(cyclopentyloxy)phenyl]-N-{3-[(methylsulfonyl)methyl]phenyl}-1,3,5-triazin-2-amine]	610 nM	530 nM	12000 nM
COc1cc(F)ccc1-c1ncnc(Nc2cccc(CS(=O)(=O)C3CC3)c2)n1 [Example 40, N-{3-[(Cyclopropylsulfonyl)methyl]phenyl}-4-(4-fluoro-2-methoxyphenyl)-1,3,5-triazin-2-amine]	14 nM	600 nM	1300 nM
CCCCOc1cc(F)ccc1-c1ncnc(Nc2cccc(CS(C)(=O)=O)c2)n1 [Example 44, 4-(2-Butoxy-4-fluorophenyl)-N-{3-[(methylsulfonyl)-methyl]phenyl}-1,3,5-triazin-2-amine]	9 nM	520 nM	910 nM
CS(=O)(=O)Cc1cccc(Nc2ncnc(-c3ccc(F)cc3OCC3CC3)n2)c1 [Example 55, 4-[2-(Cyclopropylmethoxy)-4-fluorophenyl]-N-{3-[(methylsulfonyl)methyl]phenyl}-1,3,5-triazin-2-amine]	15 nM	570 nM	1400 nM
CS(=O)(=O)Cc1cccc(Nc2ncnc(-c3ccc(F)cc3OCCCC(F)(F)F)n2)c1 [Example 59, 4-[4-Fluoro-2-(4,4,4-trifluorobutoxy)phenyl]-N-{3-[(methylsulfonyl)methyl]phenyl}-1,3,5-triazin-2-amine]	5 nM	220 nM	710 nM
CS(=O)(=O)Cc1cccc(Nc2ncnc(-c3ccc(F)cc3OCCF)n2)c1 [Example 61, 4-[4-Fluoro-2-(2-fluoroethoxy)phenyl]-N-{3-[(methylsulfonyl)methyl]phenyl}-1,3,5-triazin-2-amine]	8 nM	480 nM	640 nM
CS(=O)(=O)Cc1cccc(Nc2ncnc(-c3ccc(F)cc3OCc3cccc(Cl)c3)n2)c1 [Example 85, 4-{2-[(3-Chlorobenzyl)oxy]-4-fluorophenyl}-N-{3-[(methylsulfonyl)methyl]phenyl}-1,3,5-triazin-2-amine]	7 nM	410 nM	260 nM
Cc1cc(COc2cc(F)ccc2-c2ncnc(Nc3cccc(CS(C)(=O)=O)c3)n2)ccn1 [Example 87, 4-{4-Fluoro-2-[(2-methylpyridin-4-yl)methoxy]-phenyl}-N-{3-[(methylsulfonyl)methyl]phenyl}-1,3,5-triazin-2-amine]	6 nM	300 nM	370 nM

The next lines start with the values.

IC50 [1]	IC50 [2]	IC50 [3]	Compound
3 nM		89 nM	CS(=O)(=O)Cc1cccc(Nc2ncnc(-c3ccc(F)cc3OCc3ccccc3)n2)c1 [Example 4, 4-[2-(Benzyloxy)-4-fluorophenyl]-N-{3-[(methylsulfonyl)methyl]phenyl}-1,3,5-triazin-2-amine]
6 nM	220 nM	320 nM	COc1cc(F)ccc1-c1ncnc(Nc2cc(F)cc(CS(C)(=O)=O)c2)n1 [Example 10, 4-(4-Fluoro-2-methoxyphenyl)-N-{3-fluoro-5-[(methylsulfonyl)methyl]phenyl}-1,3,5-triazin-2-amine]
3 nM	420 nM	500 nM	CS(=O)(=O)Cc1cccc(Nc2ncnc(-c3ccccc3OCc3cccc(Cl)c3)n2)c1 [Example 28, 4-{2-[(3-Chlorobenzyl)oxy]phenyl}-N-{3-[(methylsulfonyl)methyl]phenyl}-1,3,5-triazin-2-amine]
4 nM	280 nM	330 nM	CS(=O)(=O)Cc1cccc(Nc2ncnc(-c3cc(F)ccc3OCc3cccc(F)c3)n2)c1 [Example 31, 4-{5-Fluoro-2-[(3-fluorobenzyl)oxy]phenyl}-N-{3-[(methylsulfonyl)methyl]phenyl}-1,3,5-triazin-2-amine]
6 nM	330 nM	360 nM	COc1cc(F)ccc1-c1ncnc(Nc2ccc(F)c(CS(C)(=O)=O)c2)n1 [Example 33, 4-(4-Fluoro-2-methoxyphenyl)-N-{4-fluoro-3-[(methylsulfonyl)methyl]phenyl}-1,3,5-triazin-2-amine]
5 nM	260 nM	590 nM	CCOc1cc(F)ccc1-c1ncnc(Nc2cccc(CS(C)(=O)=O)c2)n1 [Example 42, 4-(2-Ethoxy-4-fluorophenyl)-N-{3-[(methylsulfonyl)-methyl]phenyl}-1,3,5-triazin-2-amine]
3 nM	170 nM	540 nM	CC#CCOc1cc(F)ccc1-c1ncnc(Nc2cccc(CS(C)(=O)=O)c2)n1 [Example 62, 4-[2-(But-2-yn-1-yloxy)-4-fluorophenyl]-N-{3-[(methylsulfonyl)methyl]phenyl}-1,3,5-triazin-2-amine]
5 nM	380 nM	400 nM	Cc1cccc(COc2cc(F)ccc2-c2ncnc(Nc3cccc(CS(C)(=O)=O)c3)n2)c1 [Example 83, 4-{4-Fluoro-2-[(3-methylbenzyl)oxy]phenyl}-N-{3-[(methylsulfonyl)-methyl]phenyl}-1,3,5-triazin-2-amine]
4 nM	170 nM	130 nM	CS(=O)(=O)Cc1cccc(Nc2ncnc(-c3ccc(F)cc3OCc3ccnc(Cl)c3)n2)c1 [Example 88, 4-{2-[(2-Chloropyridin-4-yl)methoxy]-4-fluorophenyl}-N-{3-[(methylsulfonyl)-methyl]phenyl}-1,3,5-triazin-2-amine]
5 nM	180 nM	400 nM	CS(=O)(=O)Cc1cccc(Nc2ncnc(-c3ccc(F)cc3OCc3ccncc3)n2)c1 [Example 89, 4-[4-Fluoro-2-(pyridin-4-ylmethoxy)phenyl]-N-{3-[(methylsulfonyl)methyl]phenyl}-1,3,5-triazin-2-amine]
3 nM	280 nM	680 nM	CS(=O)(=O)Cc1cccc(Nc2ncnc(-c3ccc(F)cc3OCc3ccc(C#N)cc3)n2)c1 [Example 90, 4-({5-Fluoro-2-[4-({3-[(methylsulfonyl)methyl]phenyl}amino)-1,3,5-triazin-2-yl]phenoxy}methyl)-benzonitrile]
